Here are results for two molecules from patent publication US8067427B2 (AstraZeneca AB, priority 2004, dated 2011).

≈ marks a conversion by molar mass, not a printed value.

The nature of data set [1]: Strain rate sensitivity (SRS). Type of data set: physicochemical. The settings on record: percent increase in yield pressure from slow to fast punch velocity. The text has this:
(§1) The mechanical properties of materials such as powders may be described in terms of the following characteristics: • (a) Hardness, or resistance to deformation, which can be measured by an indentation hardness test; • (b) Yield pressure (denoted Py and also known as yield stress), that is the point at which plastic deformation occurs, which can be measured by compaction studies; • (c) Strain Rate Sensitivity (SRS), that is the percent increase in yield pressure from slow to fast punch velocity, which can be measured by compaction studies; and • (d) Modulus of Elasticity, that is the ratio of stress to elongation (strain), which can be measured by numerous methods that are well known to a person skilled in the art of formulation.
Materials can, in general, be classified by the way in which they deform under compressive force, either by brittle fracture or by plastic deformation. The degree of deformation for a brittle material is independent of the rate and duration of the compression event (that is the compression applied), giving a strain rate sensitivity value for such materials of 0% (zero %). […]
The strain rate sensitivity of a material can be calculated using the mean yield pressures (Py) calculated for a material at fast (300 mm s^−1) and slow (0.033 mm s^−1) punch velocities. […]

The next data set can be described thus: physchem. The settings on record: water, 25 °C.
A further data set concerns VEGF RTK. The settings on record: cited from earlier work.
Data set [2] in a line: Yield pressure test (compaction simulator, Heckel plot). Type of data set: physicochemical.
Source text: as §1
The yield pressure of a material can be determined by compressing it in a compaction simulator using a simple uniaxial saw tooth displacement/time profile and measuring the corresponding forces. The compaction simulator is fitted with 10 mm flat-faced punches and the material is compressed to zero porosity at a specific punch velocity. The force/displacement data generated are manipulated to produce a Heckel plot and the yield pressure is equivalent to the […] of the Heckel plot. This test can be performed at different punch velocities to determine the effect of scale-up on the deformation characteristics of the material. […]

For the next data set, the system named is tumour models. The settings on record: range of models, once-daily oral administration; cited from earlier work.

What is called solubility is the dissolved amount per volume that the medium holds. The low end stands for little dissolved substance, the high end for much dissolved substance. On to `COc1cc2c(Nc3ccc(Br)cc3F)ncnc2cc1OCC1CCN(C)CC1` [ZD6474, 4-(4-bromo-2-fluoroanilino)-6-methoxy-7-(1-methylpiperidin-4-ylmethoxy)quinazoline], for which the “solubility class per British Pharmacopoeia 2001-2002 classification system” value in “Solubility in water” was “practically insoluble”. Also, in data set [1], the strain rate sensitivity came out at 197%. The molecule also displayed a solubility in the data set “physchem” of 33 µg/mL (≈ 69.4 µM). The “inhibition of VEGF RTK” value in the data set with VEGF RTK is listed as “potent inhibitor”. The yield pressure in data set [2] was 22 MPa. The anti-tumour activity result with tumour models is recorded as “broad-spectrum anti-tumour activity”.
With `O.OC[C@H]1O[C@@H](O[C@H]2[C@H](O)[C@@H](O)C(O)O[C@@H]2CO)[C@H](O)[C@@H](O)[C@H]1O` (stereo partly shown) [Lactose monohydrate], the strain rate sensitivity in data set [1] is 19.4%.
